Laboratory results: patent US9255295B2, “Method for evaluating the sensitizing potential of a test compound” (IMMUNOSEARCH, priority 2010, dated 2016)
Where two headings read alike, the source gives them in different places.

System: ARE gene family (AKR1B10, AKR1C1, AKR1C2, CYP1B1, FTH1P, FTL, G6PD, GCLM, NQO2, SLC7A11, TXNRD1, UGT1A1, UGT1A9, YWHAZ, CD36, CYP1A1, GCLC, HMOX1, NQO1, PSME2 …)
Details: for AHR expression / AKR1B10 expression / AKR1C1 expression / AKR1C2 expression / CYP1A1 expression / CYP1B1 expression / FTH1P expression / FTL expression / GCLC expression / GCLM expression / HMOX1 expression / NQO1 expression / NQO2 expression / SLC7A11 expression / TXNRD1 expression / UGT1A1 expression / UGT1A9 expression: compared to the control

## O=CC=O [Glyoxal]
10%
  AHR NUMBER OF GENES grade: 0 (if this expression is lower, the grade is 0)
  AKR1B10 NUMBER OF GENES grade: 0 (if this expression is lower, the grade is 0)
  AKR1C1 NUMBER OF GENES grade: 0 (if this expression is lower, the grade is 0)
  AKR1C2 NUMBER OF GENES grade: 0 (if this expression is lower, the grade is 0)
  ARE >1.3 (number of genes): 3
  CD36 expression compared to control: 1.3
  CD36 grade (NUMBER OF GENES): 1 (If the expression is greater than 1.3 compared to the control, a grade of 11s given)
  CYP1A1 NUMBER OF GENES grade: 0 (if this expression is lower, the grade is 0)
  CYP1B1 NUMBER OF GENES grade: 0 (if this expression is lower, the grade is 0)
  FTH1P NUMBER OF GENES grade: 0 (if this expression is lower, the grade is 0)
  FTL NUMBER OF GENES grade: 0 (if this expression is lower, the grade is 0)
  GCLC NUMBER OF GENES grade: 0 (if this expression is lower, the grade is 0)
  GCLM NUMBER OF GENES grade: 1 (If the expression is greater than 1.3 compared to the control, a grade of 11s given)
  HMOX1 NUMBER OF GENES grade: 0 (if this expression is lower, the grade is 0)
  NQO1 NUMBER OF GENES grade: 0 (if this expression is lower, the grade is 0)
  NQO2 NUMBER OF GENES grade: 0 (if this expression is lower, the grade is 0)
  S100A8 expression compared to control: 0.9
  S100A8 grade (NUMBER OF GENES): 0 (if this expression is lower, the grade is 0)
  SLC7A11 NUMBER OF GENES grade: 1 (If the expression is greater than 1.3 compared to the control, a grade of 11s given)
  TOTAL ARE (number of genes): 3
  TXNRD1 NUMBER OF GENES grade: 1 (If the expression is greater than 1.3 compared to the control, a grade of 11s given)
  UGT1A1 NUMBER OF GENES grade: 0 (if this expression is lower, the grade is 0)
  UGT1A9 NUMBER OF GENES grade: 0 (if this expression is lower, the grade is 0)
  AHR expression: 1.0
  AKR1B10 expression: 0.7
  AKR1C1 expression: 1.0
  AKR1C2 expression: 1.2
  CYP1A1 expression: 0.0
  CYP1B1 expression: 0.8
  FTH1P expression: 1.1
  FTL expression: 1.1
  GCLC expression: 1.1
  GCLM expression: 1.7
  HMOX1 expression: 1.0
  NQO1 expression: 1.2
  NQO2 expression: 1.0
  SLC7A11 expression: 1.9
  TXNRD1 expression: 1.3
  UGT1A1 expression: 1.0
  UGT1A9 expression: 0.2
50%
  AHR NUMBER OF GENES grade: 0 (if this expression is lower, the grade is 0)
  AKR1B10 NUMBER OF GENES grade: 0 (if this expression is lower, the grade is 0)
  AKR1C1 NUMBER OF GENES grade: 0 (if this expression is lower, the grade is 0)
  AKR1C2 NUMBER OF GENES grade: 0 (if this expression is lower, the grade is 0)
  ARE >1.3 (number of genes): 6
  CD36 expression compared to control: 1.1
  CD36 grade (NUMBER OF GENES): 0 (if this expression is lower, the grade is 0)
  CYP1A1 NUMBER OF GENES grade: 0 (if this expression is lower, the grade is 0)
  CYP1B1 NUMBER OF GENES grade: 1 (If the expression is greater than 1.3 compared to the control, a grade of 11s given)
  FTH1P NUMBER OF GENES grade: 0 (if this expression is lower, the grade is 0)
  FTL NUMBER OF GENES grade: 0 (if this expression is lower, the grade is 0)
  GCLC NUMBER OF GENES grade: 0 (if this expression is lower, the grade is 0)
  GCLM NUMBER OF GENES grade: 1 (If the expression is greater than 1.3 compared to the control, a grade of 11s given)
  HMOX1 NUMBER OF GENES grade: 1 (If the expression is greater than 1.3 compared to the control, a grade of 11s given)
  NQO1 NUMBER OF GENES grade: 0 (if this expression is lower, the grade is 0)
  NQO2 NUMBER OF GENES grade: 0 (if this expression is lower, the grade is 0)
  S100A8 expression compared to control: 0.9
  S100A8 grade (NUMBER OF GENES): 0 (if this expression is lower, the grade is 0)
  SLC7A11 NUMBER OF GENES grade: 0 (if this expression is lower, the grade is 0)
  TOTAL ARE (number of genes): 6
  TXNRD1 NUMBER OF GENES grade: 1 (If the expression is greater than 1.3 compared to the control, a grade of 11s given)
  UGT1A1 NUMBER OF GENES grade: 1 (If the expression is greater than 1.3 compared to the control, a grade of 11s given)
  UGT1A9 NUMBER OF GENES grade: 1 (If the expression is greater than 1.3 compared to the control, a grade of 11s given)
  AHR expression: 0.9
  AKR1B10 expression: 0.8
  AKR1C1 expression: 0.8
  AKR1C2 expression: 0.9
  CYP1A1 expression: 1.1
  CYP1B1 expression: 3.3
  FTH1P expression: 0.9
  FTL expression: 0.9
  GCLC expression: 0.9
  GCLM expression: 1.5
  HMOX1 expression: 1.4
  NQO1 expression: 0.9
  NQO2 expression: 0.9
  SLC7A11 expression: 1.0
  TXNRD1 expression: 1.4
  UGT1A1 expression: 1.4
  UGT1A9 expression: 1.3
